Assay results reported in patent publication US20160060260A1, “BROMODOMAIN INHIBITORS FOR TREATING DISEASE” (Board of Regents, The University of Texas System, priority 2014, published 2016).

Legend:
TRIM24 = molecular target: T1, TRIM24 (Homo sapiens, UniProt O15164); experiment: BROMOscan DiscoveRx Binding Constant Assay (TRIM24); conditions: qPCR readout
T1 construct: purchased DiscoveRx (BROMOscan); host or cells: T7 phage in E. coli host derived from BL21
T1 sequence (O15164 899-1004 limits assumed): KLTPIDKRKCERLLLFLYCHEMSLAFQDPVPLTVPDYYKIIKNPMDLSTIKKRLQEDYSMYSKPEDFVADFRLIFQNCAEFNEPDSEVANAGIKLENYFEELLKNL
Excerpt: (§1) Compounds that bind the bromodomain active site and directly (sterically) or indirectly (allosterically) prevent bromodomain binding to the immobilized ligand, will reduce the amount of protein captured on the solid support (Panels A & B). […] Screening “hits” are identified by measuring the amount of bromodomain captured in test versus control samples by using a quantitative, precise and ultra-sensitive qPCR method that detects the associated DNA label. In a similar manner, dissociation constants (Kd's) for test compound-bromodomain interactions are calculated by measuring the amount of bromodomain captured on the solid support as a function of the test compound concentration.
(§2) Bromodomain assays. T7 phage strains displaying bromodomains were grown in parallel in 24-well blocks in an E. coli host derived from the BL21 strain. E. coli were grown to log-phase and infected with T7 phage from a frozen stock (multiplicity of infection=0.4) and incubated with shaking at 32° C. until lysis (90-150 minutes). The lysates were centrifuged (5,000×g) and filtered (0.2 μm) to remove cell debris. Streptavidin-coated magnetic beads were treated with biotinylated small molecule or acetylated peptide ligands for 30 minutes at room temperature to generate affinity resins for bromodomain assays. The liganded beads were blocked with excess biotin and washed with blocking buffer (SeaBlock (Pierce), 1% BSA, 0.05% Tween 20, 1 mM DTT) to remove unbound ligand and to reduce non-specific phage binding. […] Test compounds were prepared as 1000× stocks in 100% DMSO and subsequently diluted 1:10 in monoethylene glycol (MEG) to create stocks at 100× the screening concentration (resulting stock solution is 10% DMSO/90% MEG). The compounds were then diluted directly into the assays such that the final concentration of DMSO and MEG were 0.1% and 0.9%, respectively. All reactions were performed in polystyrene 96-well plates in a final volume of 0.135 ml.
(§3) The beads were then re-suspended in elution buffer (lx PBS, 0.05% Tween 20, 2 μM nonbiotinylated affinity ligand) and incubated at room temperature with shaking for 30 minutes. The bromodomain concentration in the eluates was measured by qPCR.
(§4) An 11-point 3-fold serial dilution of each test compound was prepared in 100% DMSO at 1000× final test concentration. This serial is then diluted to 100× in ethylene glycol and subsequently diluted to 1× in the assay (final DMSO concentration=0.1%, Ethylene glycol concentration=0.9%). […] If the initial Kd determined was <0.169 nM (the lowest concentration tested), the measurement was repeated with a serial dilution starting at a lower top concentration.
(§5) Binding constants (Kd's) were calculated with a standard dose-response curve using the Hill equation: Response=Background+Signal−Background 1+(Kd Hill Slope/DoseHill Slope) The Hill Slope was set to −1. Curves were fitted using a non-linear least square fit with the Levenberg-Marquardt algorithm.

BRPF2 = molecular target: T2, BRPF2 (Homo sapiens, UniProt O95696); experiment: BROMOscan DiscoveRx Binding Constant Assay (BRPF2); conditions: qPCR readout
T2 construct: purchased DiscoveRx (BROMOscan); host or cells: T7 phage in E. coli host derived from BL21
T2 sequence (O95696 562-666 limits assumed): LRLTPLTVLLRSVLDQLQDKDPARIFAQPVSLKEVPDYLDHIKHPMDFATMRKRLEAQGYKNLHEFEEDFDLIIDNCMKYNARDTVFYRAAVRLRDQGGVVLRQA
Excerpt: as §1, §2, §3, §4, §5

BRPF3 = molecular target: T3, BRPF3 (Homo sapiens, UniProt Q9ULD4); experiment: BROMOscan DiscoveRx Binding Constant Assay (BRPF3); conditions: qPCR readout
T3 construct: purchased DiscoveRx (BROMOscan); host or cells: T7 phage in E. coli host derived from BL21
T3 sequence (Q9ULD4 589-693 limits assumed): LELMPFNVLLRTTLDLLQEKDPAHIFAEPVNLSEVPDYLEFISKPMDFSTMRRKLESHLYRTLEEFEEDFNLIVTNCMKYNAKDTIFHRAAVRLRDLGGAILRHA
Excerpt: as §1, §2, §3, §4, §5

BRPF1 = molecular target: T4, BRPF1 (Homo sapiens, UniProt P55201); experiment: BROMOscan DiscoveRx Binding Constant Assay (BRPF1); conditions: qPCR readout
T4 construct: purchased DiscoveRx (BROMOscan); host or cells: T7 phage in E. coli host derived from BL21
T4 sequence (P55201 628-732 limits assumed): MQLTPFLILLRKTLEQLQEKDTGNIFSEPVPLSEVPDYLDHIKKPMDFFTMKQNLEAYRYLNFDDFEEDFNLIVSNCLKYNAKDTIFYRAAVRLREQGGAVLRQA
Excerpt: as §1, §2, §3, §4, §5

[1] = molecular target: T5, Recombinant human His-tagged Trim24-PHD-bromodomain (Homo sapiens, UniProt O15164); experiment: Trim24 AlphaScreen Assay; assay type: binding; conditions: 5 nM Trim24 protein, 15 nM biotinylated H3K23ac (1-33aa) peptide
T5 construct: Recombinant human His-tagged Trim24-PHD-bromodomain (produced in-house); made in house
T5 sequence (O15164 824-1006 limits assumed): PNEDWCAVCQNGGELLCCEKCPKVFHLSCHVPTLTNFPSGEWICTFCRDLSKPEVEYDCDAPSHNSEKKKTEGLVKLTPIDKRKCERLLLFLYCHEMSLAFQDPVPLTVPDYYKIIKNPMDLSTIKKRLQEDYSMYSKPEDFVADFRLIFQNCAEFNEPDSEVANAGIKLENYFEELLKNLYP
Method in brief: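 His-tagged Trim24-PHD-bromodomain, biotinylated H3K23ac (1-33aa) peptide and compound incubated 1 h at room temperature in 50 mM Hepes pH 7.5, 100 mM NaCl, 0.12 mM Triton X-100.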

With `Cn1c(=O)n(C)c2cc(Oc3cccc(OCC(F)(F)F)c3)c(NS(=O)(=O)c3cccnc3)cc21` [Example 125, N-(1,3-dimethyl-2-oxo-6-(3-(2,2,2-trifluoroethoxy)phenoxy)-2,3-dihydro-1H-benzo[d]imidazol-5-yl)pyridin-3-sulfonamide] the Kd (TRIM24) was 0.001 to 0.01 µM, the Kd (BRPF2) was 0.001 to 0.01 µM and the Kd (BRPF3) was 0.011 to 0.1 µM. It also gave a Kd (BRPF1) of 0.001 to 0.01 µM and an IC50 [1] of 0.01 to 0.1 µM.
